For data set [1], the system named is HuTu-80 (human duodenal cancer) cells. Description: Cell viability analysis by MTT assay, HuTu-80. Type of data set: cell-based. Conditions: for IC50: Homo sapiens, HuTu80, MTT, 48 h incubation, read-out: Antiproliferative activity, IC50, HuTu80; for Selectivity index, HuTu80: ratio of IC50 on normal hFF3 cells to IC50 of HuTu80. The method, then: (§1) The target compounds were tested on different lines of tumor cells, HuTu-80 (human duodenal cancer), B16 (mouse melanoma), A549 (human lung adenocarcinoma), KB-3-1 (human squamous cell carcinoma), HeLa (human squamous cell carcinoma of the cervix), as well as on human noncancer cells hFF3.
(§2) Human KB-3-1 epidermoid carcinoma cell line, human HeLa cervical epithelioid carcinoma cell line, human HuTu-80 duodenal cancer cells, human A549 lung carcinoma epithelial cells, mouse B16 melanoma cell line and human hFF3 fibroblast cells were obtained from the Russian Cell Culture Collection (St. Petersburg, Russia) and were cultured in DMEM (hFF3 cells in IMDM) supplemented with 10% (v/v) heat-inactivated fetal bovine serum, penicillin (100 U mL^−1), streptomycin (100 µg mL^−1) and amphotericin ([…]). Cells were maintained in a humidified atmosphere of 5% CO2 at 37 °C.
(§3) All compounds were dissolved in dimethylsulfoxide (DMSO) and stock solutions (10 mmol L^−1) were stored at −20 °C.
(§4) Cells growing in the logarithmic phase were seeded in triplicate in 96-well plates at a density of 5 × 10^3 cells per well for HeLa and HuTu-80 cells, 7 × 10^3 cells per well for KB-3-1 and hFF3, 10 × 10^3 for A549 and 20 × 10^3 for B16. The plates were incubated at 37 °C in a humidified 5% CO2 atmosphere. Cells were allowed to adhere to the surface for 24 h and then tested compounds were added at different concentrations and incubation was continued for 48 h. Then [3-(4,5-dimethylthiazol-2-yl)-2,5-diphenyltetrazolium bromide] (MTT) solution (10 µL, 5 mg mL^−1) was added to each well and the incubation was continued for an additional 3 h. The dark blue formazan crystals formed within the healthy cells were solubilized with DMSO and the absorbance was measured using a Multiscan RC plate reader at 570 nm. The IC50 was determined as the compound concentration required to decrease the A570 to 50% compared to the control (no tested compounds, DMSO) and was determined by interpolation from dose-response curves.
For orientation: Formazan colour is commonly taken as a measure of viable cells.

In data set [2] the test system is B16 (mouse melanoma) cells. Description: Cell viability analysis by MTT assay, B16. The format is cell-based. Particulars: for IC50: MTT, 48 h incubation, read-out: Antiproliferative activity, IC50, B16; for Selectivity index, B16: ratio of IC50 on normal hFF3 cells to IC50 of B16. On the procedure:
as §1, §2, §3, §4

In data set [3] the test system is A549 (human lung adenocarcinoma) cells. Nature of the data set: Cell viability analysis by MTT assay, A549. Type of data set: cell-based. Particulars: for IC50: Homo sapiens, A549, MTT, 48 h incubation, read-out: Antiproliferative activity, IC50, A549; for Selectivity index, A549: ratio of IC50 on normal hFF3 cells to IC50 of A549. On the procedure:
as §1, §2, §3, §4

In data set [4] the test system is KB-3-1 (human epidermoid carcinoma) cells. Nature of the data set: Cell viability analysis by MTT assay, KB-3-1. The format is cell-based. Conditions: for IC50: MTT, 48 h incubation, read-out: Antiproliferative activity, IC50, KB-3-1; for Selectivity index, KB-3-1: ratio of IC50 on normal hFF3 cells to IC50 of KB-3-1. The method, then:
as §1, §2, §3, §4

Data set [5] relates to HeLa (human cervical epithelioid carcinoma) cells. Description: Cell viability analysis by MTT assay, HeLa. Type of data set: cell-based. Particulars: for IC50: Homo sapiens, HeLa, MTT, 48 h incubation, read-out: Antiproliferative activity, IC50, HeLa; for Selectivity index, HeLa: ratio of IC50 on normal hFF3 cells to IC50 of HeLa. The method, then:
as §1, §2, §3, §4

Data set [6] relates to human noncancer cells hFF3 (fibroblasts). Nature of the data set: Cell viability analysis by MTT assay, normal hFF3 cells. Particulars: for IC50: normal cells, MTT, 48 h incubation, read-out: Antiproliferative activity, IC50, hHFF3; for Toxic effect on normal hFF3 cells: concentrations up to 100 μM. Type of data set: cell-based. The method, then:
as §1, §2, §3, §4

A further data set concerns tumor cells. Description: Cell viability MTT assay, statements on the tumor cell panel as a whole. Type of data set: cell-based. Particulars: for Toxic effect on tumor cells: concentrations up to 100 μM. On the procedure: as §1, §2, §4
Data set [7] concerns KB-3-1 cells. Description: Apoptosis detection by Annexin V/PI staining, flow cytometry. Particulars: 48 h. The format is cell-based, human. The method, then:
To examine whether the tested 5′-norcarbocyclic derivatives induce cell death via apoptosis Annexin V and propidium iodide analysis were used (Figure 1). […] Annexin V binds phosphatidylserine residues, which are asymmetrically distributed toward the inner plasma membrane, and migrate to the outer plasma membrane during apoptosis.
Exponentially growing KB-3-1 cells in 6–well plates (5 × 10^5 cells per well) were treated with 3i (5, 10 and 20 µM) or with 0.1% (v/v) DMSO as a control for 48 h. The cells were stained with Annexin V-FITC and propidium iodide by the Annexin-FITC apoptosis staining/detection kit (Abcam) according to the instruction of the manufacturer. Briefly, cells were collected by scrapping, washed twice with cold PBS, and centrifuged (400 g, 5 min). Cells were resuspended in binding buffer (500 µL) and Annexin V–FITC (5 µL) and PI (5 µL) were added. Cells were incubated for 5 min at 20 °C in the dark. Finally, binding buffer (300 µL) was added to each tube, and the amount of apoptotic cells in samples were analyzed by flow cytometry. For each sample, 10,000 ungated events were acquired. Annexin V + PI − cells represent the early apoptotic populations. Annexin V + PI + cells represent either late apoptotic or secondary necrotic populations.

Data set [8] has as its system KB-3-1 cells. Nature of the data set: Mitochondria depolarization analysis, JC-1 staining, flow cytometry. The format is cell-based, human. Conditions: 20 µM, KB-3-1, control 0.1% DMSO. From the text: We next investigated whether 3i utilizes the mitochondrial ‘intrinsic’ pathway in the apoptotic death of KB-3-1 cells, since the pivotal role of mitochondria in triggering apoptosis is well established. We evaluated the mitochondrial transmembrane potential (∆Ψm) in KB-3-1 cells exposed to 3i using cytofluorometric analysis. Cells were stained with the specific mitochondrial cationic dye JC-1 (5,5′,6,6′-tetrachloro-1,1′,3,3′-tetraethyl benzimidazole carbocyanine iodide) that accumulates in the transmembrane space of polarized mitochondria and forms the so–called «J–aggregates», emitting red fluorescence. A decrease in ∆Ψm results in disappearance of J–aggregates and formation of JC-1 monomers, which emit in a green fluorescence.
Mitochondria involvement in apoptosis was measured by mitochondrial depolarization occurring early during onset of apoptosis. KB-3-1 cells were incubated with 3i (5, 10 and 20 µM) or 0.1% (v/v) DMSO as a control for 48 h. Then, cells were collected and incubated in complete media in the dark with mitochondrial potential sensor JC-1 (5 µg mL^−1) at 37 °C for 30 min, washed with cold PBS and resuspended in PBS (400 µL). Fluorescences of J–aggregate and J–monomer were recorded in the fluorescence channels 2 (FL2) and 1 (FL1), respectively, with flow cytometer «FC500». […]

Read-outs that look alike come from different tables or passages of the source. A value given as a limit tells only on which side of the number the result lay.

What is called IC50 is the concentration at which inhibition is half-maximal.

Consider `CCCCCc1cc2cn(C3C=CC(O)C3)c(=O)nc2o1` (centres unmarked) [Compound 3b, 1-(4′-Hydroxy-2′-cyclopenten-1′-yl)-6-pentyl-3H-furano[2,3-d]-pyrimidine-2-one], for which the IC50 in data set [1] was over 100 µM; in data set [2] (Mus musculus, 48 h), over 100 µM; in data set [3], over 100 µM; in data set [4] (Homo sapiens, KB 3-1, 48 h), over 100 µM; in data set [5], over 100 µM; in [6] (Homo sapiens, HFF-3, 48 h), over 100 µM. The “Toxic effect on normal hFF3 cells” value in [6] is reported as “no toxic effect”. Moreover, in the data set on tumor cells, the “Toxic effect on tumor cells” value is recorded as “no toxic effect”.
As to `CCCCCc1ccc(-c2cc3cn(C4C=CC(O)C4)c(=O)nc3o2)cc1` (centres unmarked) [Compound 3i, 1-(4′-Hydroxy-2′-cyclopenten-1′-yl)-6-(4-pentylphenyl)-3H-furano[2,3-d]-pyrimidine-2-one], the IC50 in data set [1] worked out at 5.1 ± 0.6 µM; in [2], 21.3 ± 2.9 µM; in data set [2] (Mus musculus, 48 h) it was 21 µM; in [3], 47.5 ± 5.8 µM; in data set [4] (Homo sapiens, KB 3-1, 48 h), 8.2 ± 1.3 µM; in data set [5], 6.5 ± 0.9 µM. The 50% inhibitory concentration (IC50) in data set [6] (Homo sapiens, HFF-3, 48 h) was over 100 µM. Further, the “Selectivity index, HuTu80” value in data set [1] is over 19.6. Besides, the “Selectivity index, B16” value in [2] is reported as over 4.7. In addition, in data set [3], the “Selectivity index, A549” value was over 2.1. In [4], the “Selectivity index, KB-3-1” value is reported as over 12.2. Also, the “Selectivity index, HeLa” value in data set [5] was over 15.3. Moreover, the “Toxic effect on normal hFF3 cells” value in data set [6] is “not toxic”. Further, the Apoptotic cells in the data set with KB-3-1 cells [7] (5 µM) turned out to be 26%; in the data set with KB-3-1 cells [7] (20 µM) it was 55.3%. Moreover, in the data set with KB-3-1 cells [8], the “Red fluorescence value (JC-1 J-aggregates) as compared to the control” value is “decrease”. Further, in the data set with tumor cells (depending on the nature and origin of tumor cells), the Selectivity index value is 15–20.
Regarding `CCCc1cc2cn(C3C=CC(O)C3)c(=O)nc2[nH]1` (centres unmarked) [Compound 4a, 1-(4′-Hydroxy-2′-cyclopenten-1′-yl)-6-propyl-3H-pyrrolo[2,3-d]-pyrimidine-2-one], the IC50 is over 100 µM in data set [1]; over 100 µM in data set [2] (Mus musculus, 48 h); over 100 µM in [3]; over 100 µM in data set [4] (Homo sapiens, KB 3-1, 48 h); over 100 µM in data set [5]; over 100 µM in [6] (Homo sapiens, HFF-3, 48 h). Besides, the “Toxic effect on normal hFF3 cells” value in [6] is recorded as “no toxic effect”. Also, the “Toxic effect on tumor cells” value in the data set on tumor cells is “no toxic effect”.
For `O=c1nc2[nH]c(-c3ccccc3)cc2cn1C1C=CC(O)C1` (centres unmarked) [Compound 4g, 1-(4′-Hydroxy-2′-cyclopenten-1′-yl)-6-phenyl-3H-pyrrolo[2,3-d]-pyrimidine-2-one], the IC50 in data set [1] was over 100 µM; in [2] (Mus musculus, 48 h), over 100 µM; in [3], 50.2 ± 6.7 µM; in data set [4] (Homo sapiens, KB 3-1, 48 h) it was 45.4 ± 5.3 µM; in data set [5] it was 90.2 ± 9.6 µM; in [6] (Homo sapiens, HFF-3, 48 h), over 100 µM. Also, in data set [3], the “Selectivity index, A549” value was over 2. For the same compound, the “Selectivity index, KB-3-1” value in data set [4] is on record as over 2.2. Besides, the “Selectivity index, HeLa” value in [5] is given as over 1.1. Also, the “Toxic effect on normal hFF3 cells” value in data set [6] is recorded as “not toxic”.
For `CC(C)(C)c1ccc(-c2cc3cn(C4C=CC(O)C4)c(=O)nc3[nH]2)cc1` (centres unmarked) [Compound 4h, 1-(4′-Hydroxy-2′-cyclopenten-1′-yl)-6-(4-tertbutylphenyl)-3H-pyrrolo[2,3-d]-pyrimidine-2-one], the IC50 in data set [1] stood at 25.4 ± 3.1 µM; in data set [2], 35.6 ± 4.2 µM; in [2] (Mus musculus, 48 h), 35 µM; in [3] it was 25.3 ± 2.9 µM; in [4] (Homo sapiens, KB 3-1, 48 h), 15 µM; in data set [4] it was 15.3 ± 1.1 µM. In addition, the IC50 amounted to 25.8 ± 4.6 µM in [5]; 70 µM in data set [6] (Homo sapiens, HFF-3, 48 h); 70.9 ± 9.1 µM in data set [6]. Besides, the “Selectivity index, HuTu80” value in data set [1] is reported as 2.8. In [2], the “Selectivity index, B16” value is listed as 1.9. The “Selectivity index, A549” value in [3] came to 2.8. The “Selectivity index, KB-3-1” value in [4] was determined as 4.6. In data set [5], the “Selectivity index, HeLa” value is recorded as 2.7.
Regarding `CCCCCc1ccc(-c2cc3cn(C4C=CC(O)C4)c(=O)nc3[nH]2)cc1` (centres unmarked) [Compound 4i, 1-(4′-Hydroxy-2′-cyclopenten-1′-yl)-6-(4-pentylphenyl)-3H-pyrrolo[2,3-d]-pyrimidine-2-one], the IC50 is 8.5 ± 1.1 µM in [1]; 13.4 ± 3.2 µM in data set [2] (Mus musculus, 48 h); 15.6 ± 4.1 µM in [3]; 9.8 ± 0.7 µM in [4] (Homo sapiens, KB 3-1, 48 h); 11.1 ± 0.9 µM in data set [5]; 21.9 ± 4.8 µM in data set [6] (Homo sapiens, HFF-3, 48 h). Also, the “Selectivity index, HuTu80” value in [1] was found to be 2.6. Also, the “Selectivity index, B16” value in data set [2] came to 1.6. Moreover, the “Selectivity index, A549” value in [3] came out at 1.4. Besides, the “Selectivity index, KB-3-1” value in data set [4] is listed as 2.2. For the same compound, the “Selectivity index, HeLa” value in data set [5] was determined as 1.9.
For the compound `CCCCCCCCCCc1cc2cn(C3CC(O)C(O)C3O)c(=O)nc2o1` (centres unmarked) [Compound 5, 1-(2′,3′,4′-Trihydroxycyclopent-1′-yl)-6-decyl-3H-furano[2,3-d]-pyrimidine-2-one], the IC50 is over 100 µM in data set [1]; over 100 µM in [2] (Mus musculus, 48 h); over 100 µM in data set [3]; 50.3 ± 9.8 µM in data set [4] (Homo sapiens, KB 3-1, 48 h); 70.2 ± 8.9 µM in [5]; over 100 µM in [6] (Homo sapiens, HFF-3, 48 h). For the same compound, the “Selectivity index, KB-3-1” value in data set [4] was over 2. Besides, the “Selectivity index, HeLa” value in data set [5] is over 1.4. For the same compound, the “Toxic effect on normal hFF3 cells” value in data set [6] is listed as “not toxic”.

For the origin of these results see paper PMC6222425, “Novel 5′-Norcarbocyclic Derivatives of Bicyclic Pyrrolo- and Furano[2,3-d]Pyrimidine Nucleosides” (Molecules : A Journal of Synthetic Chemistry and Natural …, 2018).
